We go through one compound from EP4667463A1, “DOMIDE MOLECULAR GLUE DERIVATIVE AND USE THEREOF” (CSPC Megalith Biopharmaceutical Co., Ltd., priority 2023, dated 2024).

One series deals with HL-60. Put plainly: In vitro anti-tumor activity of molecular glue compounds, CellTiter-Lumi cell viability assay. It counts as cell-based. The settings on record: Homo sapiens; HL-60 cells, 96 h incubation; read-out: Cell inhibitory activity (IC50 values) HL-60. The procedure:
(§1) Different tumor cells were all commercially available and used for evaluating the anti-tumor inhibitory activity of the compounds of the present disclosure. Various tumor cells were cultured until the cell confluency reached 80%-90%, with cell viability above 90% as determined by trypan blue exclusion. Then, the cells were plated. Specifically, after cell density optimization, 100 µL of each of the cell suspensions of HL-60 and SK-BR-3 cells (cell density: 3000 cells/well), Romas cells (cell density: 6000 cells/well), NCI-H929 cells (cell density: 4000 cells/well), and NCI-H82 cells (cell density: 5000 cells/well) was plated in a BeyoGold™ ultra-low attachment black clear-bottom 96-well plate (Cat. No.: FULA965-24pcs), and the plate was incubated overnight. The next day, after the adherent cells were adhered to the wall and suspension cells requiring aggregation were aggregated, 50 µL of culture medium was aspirated from each well of the 96-well plate. Then, the compounds diluted with the corresponding culture media were added. Specifically, the compounds were serially diluted at a 5-fold gradient starting from the highest concentration of 1 µM, with a final DMSO concentration of 1%o, and the test compounds were then added to the cell culture plate. The plate was incubated in an incubator at 37 °C with 5% carbon dioxide for 96 h. Before measurement, the CellTiter-Lumi™ luminescent cell viability assay reagent was equilibrated to room temperature in the dark. Then, 50 µL of the CellTiter-Lumi™ (Cat. No.: C0065XL) cell viability assay reagent was added to each well of the 96-well plate. The plate was shaken in the dark on a shaker at 300 rpm for 10 min to ensure complete cell lysis. After the reaction was completed, the luminescence was measured on a multi-mode microplate reader. The cell inhibition rate was determined according to the luminescence. Then, a cell viability curve was generated by Graphpad Prism 8.0, and the IC50 values were calculated. The compounds of the present disclosure were tested for activity by the method described above. Table 1. Cell inhibitory activity (IC50 values)

The next series has as its system NCI-H82. Described as above. It counts as cell-based. The settings on record: Homo sapiens; NCI-H82 cells, 96 h incubation; read-out: Cell inhibitory activity (IC50 values) NCI-H82. The procedure:
as §1

Another series concerns NCI-H929. The series is described as above. It counts as cell-based. The settings on record: Homo sapiens; NCI-H929 cells, 96 h incubation; read-out: Cell inhibitory activity (IC50 values) NCI-H929. The procedure:
as §1

A further series relates to Romas. Described as above. It counts as cell-based. The conditions noted are these: Romas cells, 96 h incubation; read-out: Cell inhibitory activity (IC50 values) Romas. The protocol:
as §1

A further series deals with SK-BR-3. The description is as above. It counts as cell-based. The settings on record: Homo sapiens, SK-BR-3 cells. The procedure:
as §1

The target of another series is T1, GSPT1 protein (Homo sapiens, UniProt P15170+Q96SW2).
T1 construct: An HiBiT protein tag was added to the N-terminus of the endogenous GSPT1 protein of HEK293T cells by CRISPR gene editing technology; endogenous in cells; host or cells: HEK293T (CRISPR knock-in HiBiT-GSPT1 cell strain)
T1 sequence (P15170 whole entry): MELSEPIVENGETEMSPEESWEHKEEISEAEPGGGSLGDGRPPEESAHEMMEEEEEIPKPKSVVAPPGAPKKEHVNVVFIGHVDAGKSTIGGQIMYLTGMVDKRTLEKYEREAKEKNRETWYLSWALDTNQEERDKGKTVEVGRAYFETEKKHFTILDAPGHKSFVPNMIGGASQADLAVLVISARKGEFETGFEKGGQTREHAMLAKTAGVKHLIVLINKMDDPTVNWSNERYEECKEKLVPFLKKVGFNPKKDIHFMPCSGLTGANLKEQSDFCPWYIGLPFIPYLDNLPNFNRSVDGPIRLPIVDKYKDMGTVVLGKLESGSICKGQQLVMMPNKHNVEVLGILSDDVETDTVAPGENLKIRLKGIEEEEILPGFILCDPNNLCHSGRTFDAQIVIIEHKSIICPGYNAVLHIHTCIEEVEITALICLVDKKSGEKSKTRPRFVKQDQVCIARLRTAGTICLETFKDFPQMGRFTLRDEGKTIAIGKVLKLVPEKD
T1 sequence (Q96SW2 whole entry): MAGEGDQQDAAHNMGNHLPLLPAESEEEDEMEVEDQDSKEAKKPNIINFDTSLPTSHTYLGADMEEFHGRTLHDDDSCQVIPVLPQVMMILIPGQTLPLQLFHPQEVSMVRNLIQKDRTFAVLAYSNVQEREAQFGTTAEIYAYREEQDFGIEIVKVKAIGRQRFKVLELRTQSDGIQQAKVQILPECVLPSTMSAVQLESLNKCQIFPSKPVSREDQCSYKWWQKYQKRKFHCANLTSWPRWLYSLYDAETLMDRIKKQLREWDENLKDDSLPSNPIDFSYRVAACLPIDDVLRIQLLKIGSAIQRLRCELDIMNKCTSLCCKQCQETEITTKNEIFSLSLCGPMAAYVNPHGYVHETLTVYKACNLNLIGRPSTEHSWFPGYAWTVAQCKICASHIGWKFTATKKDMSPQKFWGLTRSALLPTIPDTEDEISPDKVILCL
T1 sequence (Q16531 whole entry partner): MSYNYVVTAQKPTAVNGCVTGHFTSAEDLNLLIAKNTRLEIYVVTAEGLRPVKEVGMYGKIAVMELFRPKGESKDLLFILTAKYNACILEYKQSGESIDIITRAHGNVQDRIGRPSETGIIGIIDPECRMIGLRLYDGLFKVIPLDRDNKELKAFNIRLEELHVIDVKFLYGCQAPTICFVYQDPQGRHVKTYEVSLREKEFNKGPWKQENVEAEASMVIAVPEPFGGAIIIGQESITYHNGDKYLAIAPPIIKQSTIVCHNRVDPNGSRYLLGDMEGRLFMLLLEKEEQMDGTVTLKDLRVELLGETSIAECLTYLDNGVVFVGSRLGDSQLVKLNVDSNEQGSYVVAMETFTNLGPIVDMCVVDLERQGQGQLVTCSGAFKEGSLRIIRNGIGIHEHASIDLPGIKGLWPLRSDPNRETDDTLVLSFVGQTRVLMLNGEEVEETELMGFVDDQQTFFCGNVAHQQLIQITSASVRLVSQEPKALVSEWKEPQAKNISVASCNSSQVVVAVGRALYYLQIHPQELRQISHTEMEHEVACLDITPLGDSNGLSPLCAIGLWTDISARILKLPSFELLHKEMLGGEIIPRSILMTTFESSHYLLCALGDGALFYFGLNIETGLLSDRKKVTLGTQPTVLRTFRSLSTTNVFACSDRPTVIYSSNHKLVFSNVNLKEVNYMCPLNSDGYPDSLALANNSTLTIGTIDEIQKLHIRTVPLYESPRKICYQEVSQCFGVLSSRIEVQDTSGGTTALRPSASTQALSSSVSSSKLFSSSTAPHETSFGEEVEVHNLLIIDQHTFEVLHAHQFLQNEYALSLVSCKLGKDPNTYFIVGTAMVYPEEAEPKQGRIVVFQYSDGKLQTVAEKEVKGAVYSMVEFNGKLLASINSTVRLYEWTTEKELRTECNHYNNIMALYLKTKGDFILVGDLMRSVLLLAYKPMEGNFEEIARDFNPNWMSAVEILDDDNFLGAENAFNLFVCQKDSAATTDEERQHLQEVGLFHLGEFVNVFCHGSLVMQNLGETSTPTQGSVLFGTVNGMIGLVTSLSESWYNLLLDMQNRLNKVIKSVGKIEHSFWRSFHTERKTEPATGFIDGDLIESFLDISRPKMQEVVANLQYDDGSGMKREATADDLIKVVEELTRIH
The series can be described thus: GSPT1 protein degradation, Nano-Glo HiBiT assay in HiBiT-GSPT1 HEK293T cells. It counts as cell-based. The settings on record: 24 h. The protocol:
This experiment was performed to evaluate the targeting property of the compounds. An HiBiT protein tag was added to the N-terminus of the endogenous GSPT1 protein of HEK293T cells by CRISPR gene editing technology, so as to construct a HiBiT-GSPT1 HEK293T stably transfected cell strain. HiBiT-GSPT1 HEK293T cells were cultured in DMEM containing 10% FBS and 1% PenStrep. When the cell confluency reached 80%-90%, the cells were digested with trypsin, pipetted into single cells, and resuspended in a corresponding culture medium to form a cell suspension. The cells were counted using Cell Countess (NanoEnTek, #Cat. EVE-MC2), and the cell viability was determined by trypan blue exclusion to ensure that the cell viability was above 90%. The cells were plated in a 384-well plate (Corning, #Cat. 3764) at 10,000 cells/40 µL of cell suspension per well, and cultured in an incubator at 37 °C with 5% CO2 overnight. The next day, the test compounds were added to the 384-well plate under conditions of 30 µM highest concentration, 5-fold serial dilution, and 1‰ DMSO. The plate was incubated in the incubator at 37 °C with 5% CO2 for another 24 h. Before measurement, the Nano-Glo HiBiT reagent was equilibrated to room temperature, the LgBiT protein was diluted with the Nano-Glo HiBiT Lytic buffer according to a dilution ratio of 1:100, and the Nano-Glo@HiBiT Lytic substrate was diluted to an appropriate volume according to a ratio of 1:50. After the cell culture plate was equilibrated at room temperature for 10 min, 40 µL of Nano-Glo HiBiT Lytic assay reagent was added to each well. The plate was shaken on a microplate shaker at a rotation speed of 300 rpm for 3 min in the dark. After the reaction was completed, the luminescencevalues were read on BMG PHERASTAR FS (BMG LRBTECH, Cat. No.: PHERAstar FSX), and the DC50 values were calculated using GraphPad Prism 8.0. Table 2. GSPT1 protein degradation

Series [1] can be described thus: in vitro. The settings on record: human, liver microsomes. For orientation: Microsomes from liver hold many membrane-bound enzymes, among them those of drug oxidation.
Experimental: (§2) The final concentration of the substrate in the incubation system was 1 µM, and the incubation time was 60 min. Sampling was performed at 0 min, 5 min, 15 min, 30 min, and 60 min. The reaction was stopped with glacial acetonitrile containing an internal standard (testosterone-d3 at a concentration of 10 ng/mL). Verapamil was used as a positive control. […] The natural logarithm of the remaining percentage was subjected to linear fitting with time to determine the elimination rate constant (k).
Series [2] is described as follows: in vitro. The settings on record: monkey, liver microsomes.
Experimental: as §2
Series [3] can be described thus: in vitro. The settings on record: rat, liver microsomes.
Experimental: as §2
The nature of series [4]: in vitro. The settings on record: mouse, liver microsomes.
Experimental: as §2
The nature of series [5]: Metabolic stability in liver microsomes. The settings on record: Human liver microsomes, after 60 min of incubation.
Experimental: as §2
Series [6] in a line: Metabolic stability in liver microsomes. The settings on record: Monkey liver microsomes, after 60 min of incubation.
Experimental: as §2
Series [7] in a line: Metabolic stability in liver microsomes. The conditions noted are these: Dog liver microsomes, after 60 min of incubation.
Experimental: as §2
Series [8] in a line: Metabolic stability in liver microsomes. The conditions noted are these: Rat liver microsomes, after 60 min of incubation.
Experimental: as §2

SMILES strings stand for the structures. Where two headings read alike, the source gives them in different places. Where only a bound is given, the exact number is not on record here.

For `O=C1CCC(N2Cc3cc(CNC(=O)Nc4ccc(CCCOC5CCCNC5)c(Cl)c4)ccc3C2=O)C(=O)N1` (stereo not shown) [Compound B19], the IC50 is less than 10 nM in the series with HL-60; 10 to 50 nM in the series on NCI-H82; less than 10 nM in the series on NCI-H929; less than 10 nM with Romas; less than 10 nM in the series with SK-BR-3 (96 h incubation, read-out: Cell inhibitory activity (IC50 values) SK-BR-3); 3.62 nM with SK-BR-3 (read-out: SK-BR-3 IC50). For the same compound, on GSPT1 protein, the DC50 was found to be 66.2 nM. In addition, the CLint scaled at 1 µM in the series “in vitro [1]” was determined as 5.8 mL/min/kg; in “in vitro [2]”, 11.3 mL/min/kg; in the series “in vitro [3]” it was 6.55 mL/min/kg; in the series “in vitro [4]”, 17 mL/min/kg. In addition, the half-life at 1 µM turned out to be 5 h in “in vitro [1]”, 3 h in the series “in vitro [2]”, 6.32 h in the series “in vitro [3]” and 5.48 h in the series “in vitro [4]”. Moreover, the “Parent drug remaining %” value turned out to be 80.5% in series [5], 77.7% in series [6], 118% in series [7] and 88.1% in series [8].

A word on the IC50: it is the midpoint of a concentration-inhibition curve. One may read the DC50 as the concentration giving 50% degradation. The term CLint scaled denotes a measure of how fast metabolising enzymes remove a compound, apart from limits set by blood flow. For orientation: half-life means the time needed for the level to fall by half in the phase considered.
